Experimental findings from ChEMBL document CHEMBL1938340, “DNA-instructed acyl transfer reactions for the synthesis of bioactive peptides” (Bioorg Med Chem Lett, 2011) are described below.

Assay [1] has as its target T1, E3 ubiquitin-protein ligase XIAP (Homo sapiens, UniProt P98170). Put plainly: Displacement of fluorescent H-Abu-Arg-Pro-Phe-Lys-NH-FAM-NH2 peptide from XIAP BIR3 domain by fluorescence polarization assay. (Fluorescence polarisation rises when a labelled molecule tumbles more slowly, as on binding a larger partner.)
Assay [2] has as its target T1, E3 ubiquitin-protein ligase XIAP. Briefly: Inhibition of XIAP in HEK293 cell lysate assessed as release of caspase-3 from BIR3 measuring formation of fluorescent AFC from DEVD-AFC by fluorimetry. Type of assay: cell-free.
For assay [3] the target is unchanged. Briefly: Inhibition of XIAP in HEK293 cell lysate assessed as release of caspase-9 from BIR3 measuring formation of fluorescent AFC from LEHD-AFC by fluorimetry. Type of assay: cell-free.

pIC50: −log10 of the molar value. Active and inactive are the calls of the source. No cut-off for these calls is given here. Peptide text beside a SMILES is read from it.

T1 sequence (P98170 whole entry, the tested form may be a part): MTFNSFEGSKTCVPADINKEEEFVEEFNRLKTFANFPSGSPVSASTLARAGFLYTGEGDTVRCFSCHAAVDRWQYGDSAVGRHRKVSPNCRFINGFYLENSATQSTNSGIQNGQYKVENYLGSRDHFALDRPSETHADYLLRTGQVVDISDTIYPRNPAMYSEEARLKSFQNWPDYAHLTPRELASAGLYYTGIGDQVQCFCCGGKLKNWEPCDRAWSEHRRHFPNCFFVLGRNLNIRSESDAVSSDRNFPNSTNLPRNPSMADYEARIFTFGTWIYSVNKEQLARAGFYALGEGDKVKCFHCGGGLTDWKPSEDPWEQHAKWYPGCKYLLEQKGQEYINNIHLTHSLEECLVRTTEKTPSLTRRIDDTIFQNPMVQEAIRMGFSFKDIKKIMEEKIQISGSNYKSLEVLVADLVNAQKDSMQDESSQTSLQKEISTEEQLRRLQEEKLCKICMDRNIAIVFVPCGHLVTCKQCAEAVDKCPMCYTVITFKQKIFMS

Consider `CC[C@H](C)[C@H](NC(=O)[C@@H]1CCCN1C(=O)[C@@H](N)CS)C(=O)NCCOCCOCC(=O)NCCN(CC(=O)NCCN(CC(=O)NCCN(CC(=O)NCCN(CC(=O)NCCN(CC(=O)NCCN(CC(=O)NCCN(CC(=O)NCC(N)=O)C(=O)Cn1cnc2c(=O)[nH]c(N)nc21)C(=O)Cn1cnc2c(N)ncnc21)C(=O)Cn1ccc(N)nc1=O)C(=O)Cn1cnc2c(N)ncnc21)C(=O)Cn1cc(C)c(=O)[nH]c1=O)C(=O)Cn1ccc(N)nc1=O)C(=O)Cn1ccc(N)nc1=O`, for which the outcome in assay [1] was inactive.

With `CC[C@H](C)[C@H](NC(=O)[C@@H]1CCCN1C(=O)[C@H](CS)NC(=O)[C@H](C)N)C(=O)NCCOCCOCC(=O)NCCN(CC(=O)NCCN(CC(=O)NCCN(CC(=O)NCCN(CC(=O)NCCN(CC(=O)NCCN(CC(=O)NCCN(CC(=O)NCC(N)=O)C(=O)Cn1cnc2c(=O)[nH]c(N)nc21)C(=O)Cn1cnc2c(N)ncnc21)C(=O)Cn1ccc(N)nc1=O)C(=O)Cn1cnc2c(N)ncnc21)C(=O)Cn1cc(C)c(=O)[nH]c1=O)C(=O)Cn1ccc(N)nc1=O)C(=O)Cn1ccc(N)nc1=O`, the inhibition result in assay [2] and in assay [3] was “Dose-dependent effect” throughout. In addition, in assay [1], the pIC50 (usually the negative decadic logarithm of the IC50, by convention in mol/L) is 6.25.

`CC(=O)NCCN(CC(=O)NCCN(CC(=O)NCCN(CC(=O)NCCN(CC(=O)NCCN(CC(=O)NCCN(CC(=O)NCCN(CC(=O)NCCN(CC(=O)N[C@@H](CCCCNC(=O)CCSC(=O)[C@H](C)N)C(N)=O)C(=O)Cn1ccc(N)nc1=O)C(=O)Cn1cnc2c(N)ncnc21)C(=O)Cn1ccc(N)nc1=O)C(=O)Cn1ccc(N)nc1=O)C(=O)Cn1ccc(N)nc1=O)C(=O)Cn1ccc(N)nc1=O)C(=O)Cn1cc(C)c(=O)[nH]c1=O)C(=O)Cn1cc(C)c(=O)[nH]c1=O`: the result in assay [1] was inactive.

With `CC[C@H](C)[C@H](NC(=O)[C@@H]1CCCN1C(=O)[C@@H](N)CS)C(=O)N[C@@H](C)C(=O)N[C@@H](CCC(N)=O)C(=O)N[C@@H](CCCCN)C(=O)NCCN(CC(=O)NCCN(CC(=O)NCCN(CC(=O)NCCN(CC(=O)NCCN(CC(=O)NCCN(CC(=O)NCCN(CC(=O)NCC(N)=O)C(=O)Cn1cnc2c(=O)[nH]c(N)nc21)C(=O)Cn1cnc2c(N)ncnc21)C(=O)Cn1ccc(N)nc1=O)C(=O)Cn1cnc2c(N)ncnc21)C(=O)Cn1cc(C)c(=O)[nH]c1=O)C(=O)Cn1ccc(N)nc1=O)C(=O)Cn1ccc(N)nc1=O`, the result in assay [1] was inactive.

As for `CC[C@H](C)[C@H](NC(=O)[C@@H]1CCCN1C(=O)[C@H](CS)NC(=O)[C@H](C)N)C(=O)N[C@@H](C)C(=O)N[C@@H](CCC(N)=O)C(=O)N[C@@H](CCCCN)C(=O)NCCN(CC(=O)NCCN(CC(=O)NCCN(CC(=O)NCCN(CC(=O)NCCN(CC(=O)NCCN(CC(=O)NCCN(CC(=O)NCC(N)=O)C(=O)Cn1cnc2c(=O)[nH]c(N)nc21)C(=O)Cn1cnc2c(N)ncnc21)C(=O)Cn1ccc(N)nc1=O)C(=O)Cn1cnc2c(N)ncnc21)C(=O)Cn1cc(C)c(=O)[nH]c1=O)C(=O)Cn1ccc(N)nc1=O)C(=O)Cn1ccc(N)nc1=O`, the inhibition result in assay [2] and in assay [3] was “Dose-dependent effect” each time. In addition, the pIC50 in assay [1] is 5.82.

As to `CC[C@H](C)[C@H](NC(=O)[C@@H]1CCCN1C(=O)[C@H](CS)NC(=O)[C@H](C)N)C(=O)O` (H-ACPI-OH), in assay [1], the pIC50 was 6.19.
